Measured values: ChEMBL document CHEMBL1156538, “Microwave-assisted solid phase synthesis, PEGylation, and biological activity studies of glucagon-like peptide-1(7-36) amide” (2008)

Experiments:
Format in all cases: functional
Mus musculus [1] = test: Decrease in blood glucose level in Kunming mouse at 25 nmol/kg, ip administered 90 mins before 18 mmol/kg, ip glucose injection after 30 mins
Mus musculus [2] = test: Decrease in blood glucose level in Kunming mouse at 25 nmol/kg, ip administered 90 mins before 18 mmol/kg, ip glucose injection after 45 mins
Mus musculus [3] = test: Decrease in blood glucose level in Kunming mouse at 25 nmol/kg, ip administered 90 mins before 18 mmol/kg, ip glucose injection after 60 mins
Mus musculus [4] = test: Decrease in blood glucose level in Kunming mouse at 25 nmol/kg, ip administered simultaneously with glucose at 18 mmol/kg, ip after 15 mins
Mus musculus [5] = test: Decrease in blood glucose level in Kunming mouse at 25 nmol/kg, ip administered simultaneously with glucose at 18 mmol/kg, ip after 30 mins
Mus musculus [6] = test: Decrease in blood glucose level in Kunming mouse at 25 nmol/kg, ip administered simultaneously with glucose at 18 mmol/kg, ip after 45 mins
Mus musculus [7] = test: Decrease in blood glucose level in Kunming mouse at 25 nmol/kg, ip administered simultaneously with glucose at 18 mmol/kg, ip after 60 mins
Mus musculus [8] = test: Decrease in blood glucose level in Kunming mouse at 25 nmol/kg, ip administered 90 mins before 18 mmol/kg, ip glucose injection after 15 mins

## CC[C@H](C)[C@H](NC(=O)[C@H](Cc1ccccc1)NC(=O)[C@H](CCC(=O)O)NC(=O)[C@H](CCCCN)NC(=O)[C@H](C)NC(=O)[C@H](C)NC(=O)[C@H](CCC(N)=O)NC(=O)CNC(=O)[C@H](CCC(=O)O)NC(=O)[C@H](CC(C)C)NC(=O)[C@H](Cc1ccc(O)cc1)NC(=O)[C@H](CO)NC(=O)[C@H](CO)NC(=O)[C@@H](NC(=O)[C@H](CC(=O)O)NC(=O)[C@H](CO)NC(=O)[C@@H](NC(=O)[C@H](Cc1ccccc1)NC(=O)[C@@H](NC(=O)CNC(=O)[C@H](CCC(=O)O)NC(=O)CNC(=O)[C@@H](N)Cc1cnc[nH]1)[C@@H](C)O)[C@@H](C)O)C(C)C)C(=O)N[C@@H](C)C(=O)N[C@@H](Cc1c[nH]c2ccccc12)C(=O)N[C@@H](CC(C)C)C(=O)N[C@H](C(=O)N[C@@H](CCCCN)C(=O)NCC(=O)N[C@@H](CCCNC(=N)N)C(N)=O)C(C)C
Mus musculus [1]
  Activity: 14.67 mmol/L
Mus musculus [2]
  Activity: 10.23 mmol/L
Mus musculus [3]
  Activity: 9.18 mmol/L
Mus musculus [4]
  Activity: 12.98 mmol/L
Mus musculus [5]
  Activity: 8.27 mmol/L
Mus musculus [6]
  Activity: 7.7 mmol/L
Mus musculus [7]
  Activity: 7.18 mmol/L
Mus musculus [8]
  Activity: 17.92 mmol/L
